# Data: US9790201B2, “Piperidine and azepine derivatives as prokineticin receptor modulators” (TAKEDA PHARMACEUTICAL COMPANY LIMITED, priority 2013, dated 2017)
# Molecular target: human PKR1 receptors (Homo sapiens (Human), UniProt Q8TCW9)
# Assay: PKR1 antagonist assay: block of PK1-mediated intracellular calcium release (FLIPR Tetra)
# Format: cell-based
# Details: RBL2H3 cells expressing human PKR1; stimulation with PK1 at EC80; calcium fluorescence
# Method: Prokineticin receptor 1 (PKR1) antagonists may be functionally assessed by measurement of change in intracellular calcium levels induced by Gq mediated increase in inositol triphosphate (IP3) levels. The ability of a compound to block the intracellular release of calcium mediated by PK1 in RBL2H3 cells expressing human PKR1 receptors is determined as a measure of the compound's antagonist activity in vitro.
# Approximately 10,000 cells per assay well are seeded in normal culture medium in a 384 well plate (Corning). Twenty-four hours after seeding, the cells are loaded with a calcium sensitive fluorescent dye by replacing the culture medium with assay buffer (1× Hanks buffered saline, 25 mM HEPES, 0.1% w/v fatty acid free BSA (bovine serum albumin), pH 7.4) containing 1 mM probenecid and 1× Calcium 5 Reagent (Molecular Devices). Cells are incubated at 37° C. for 1 hour to allow for dye uptake.
# To test for antagonist activity, test compounds at a final concentration range between 0.32 nM-10 μM (diluted in assay buffer) are added to the assay wells and allowed to incubate for 10 minutes prior to stimulation with PK1. After incubation with test compounds the assay plate is placed in a FLIPR Tetra (Molecular Devices) and PK1 (diluted in assay buffer) is added at the determined EC80 concentration (final). Ligand-dependent changes in intracellular calcium levels are determined by measuring changes in fluorescence of the dye at […] following excitation at 485 nm.
# human PKR1 receptors, sequence (Q8TCW9 whole entry): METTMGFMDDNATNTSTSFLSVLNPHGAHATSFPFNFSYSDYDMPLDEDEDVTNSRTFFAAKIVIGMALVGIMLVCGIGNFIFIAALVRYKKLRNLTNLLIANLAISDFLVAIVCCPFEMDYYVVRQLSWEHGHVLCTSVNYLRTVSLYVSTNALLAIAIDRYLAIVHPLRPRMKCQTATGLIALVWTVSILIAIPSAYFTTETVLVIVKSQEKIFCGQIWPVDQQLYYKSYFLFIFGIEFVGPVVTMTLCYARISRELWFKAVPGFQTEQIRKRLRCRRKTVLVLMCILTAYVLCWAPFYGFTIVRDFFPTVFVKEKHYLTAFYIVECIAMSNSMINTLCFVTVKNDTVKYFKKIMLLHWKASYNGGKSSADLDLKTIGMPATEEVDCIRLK
row,Structure (SMILES),IC50 [nM]
1,"Cc1ccc(C2CCCN(C(=O)c3ccnc(N(C)C)c3)C2)cc1 (single isomer, unassigned) [Example 50, N,N-Dimethyl-4-{[3-(4-methylphenyl)piperidin-1-yl]carbonyl}pyridin-2-amine]",990
2,"Cc1ccc(C2CCCN(C(=O)c3ccnc(N(C)C)c3)C2)cc1 (single isomer, unassigned) [Example 51, N,N-Dimethyl-4-{[3-(4-methylphenyl)piperidin-1-yl]carbonyl}pyridin-2-amine]",310
3,"CNc1cc(C(=O)N2CCC[C@@H](c3ccc(Cl)cc3C)C2)cnn1 (single isomer, unassigned) [Example 73]",1180
4,"Cn1cc(C(=O)N2CCCC(c3ccc(Cl)cc3C(F)(F)F)C2)c(N)n1 (single isomer, unassigned) [Example 118, 4-({3-[4-Chloro-2-(trifluoromethyl)phenyl]piperidin-1-yl}carbonyl)-1-methyl-1H-pyrazol-3-amine]",> 10000
5,"Cn1cc(C(=O)N2CCCC(c3ccc(Cl)cc3C(F)(F)F)C2)c(N)n1 (single isomer, unassigned) [Example 119, 4-({3-[4-Chloro-2-(trifluoromethyl)phenyl]piperidin-1-yl}carbonyl)-1-methyl-1H-pyrazol-3-amine]",330
6,"CN(C)c1cc(C(=O)N2CCCC(c3ccccc3F)C2)ccn1 (centres unmarked) [Example 1, 4-{[3-(2-Fluorophenyl)piperidin-1-yl]carbonyl}-N,N-dimethylpyridin-2-amine]",1820
7,"CN(C)c1cc(C(=O)N2CCCC(c3ccc(Cl)cc3Cl)C2)ccn1 (centres unmarked) [Example 2, 4-{[3-(2,4-Dichlorophenyl)piperidin-1-yl]carbonyl}-N,N-dimethylpyridin-2-amine]",190
8,"O=C(c1ccnc(C2CC2)c1)N1CCCC(c2ccc(Cl)cc2)C1 (centres unmarked) [Example 3, 4-{[3-(4-Chlorophenyl)piperidin-1-yl]carbonyl}-2-cyclopropylpyridine]",1740
9,"CCc1cc(C(=O)N2CCCC(c3ccc(Cl)cc3C)C2)ccn1 (centres unmarked) [Example 4, 4-{[3-(4-Chloro-2-methylphenyl)piperidin-1-yl]carbonyl}-2-ethylpyridine]",70
10,"Cc1cc(C(=O)N2CCCC(c3ccc(Cl)cc3C)C2)ccn1 (centres unmarked) [Example 5, 4-{[3-(4-Chloro-2-methylphenyl)piperidin-1-yl]carbonyl}-2-methylpyridine]",450
11,"CCc1cc(C(=O)N2CCCC(c3ccc(Cl)cc3C(F)(F)F)C2)ccn1 (centres unmarked) [Example 6, 4-({3-[4-Chloro-2-(trifluoromethyl)phenyl]piperidin-1-yl}carbonyl)-2-ethylpyridine]",280
12,"CN(C)c1cc(C(=O)N2CCCC(c3ccc(Cl)cc3C(F)(F)F)C2)ccn1 (centres unmarked) [Example 7, 4-({3-[4-Chloro-2-(trifluoromethyl)phenyl]piperidin-1-yl}carbonyl)-N,N-dimethylpyridin-2-amine]",100
13,"CC(C)Nc1cc(C(=O)N2CCCC(c3ccc(Cl)cc3)C2)ccn1 (centres unmarked) [Example 8, 4-{[3-(4-Chlorophenyl)piperidin-1-yl]carbonyl}-N-(propan-2-yl)pyridin-2-amine]",3270
14,"COc1cc(C(=O)N2CCCC(c3ccc(Cl)cc3C(F)(F)F)C2)ccn1 (centres unmarked) [Example 9, 4-({3-[4-Chloro-2-(trifluoromethyl)phenyl]piperidin-1-yl}carbonyl)-2-methoxypyridine]",1370
15,"Cc1cc(C(=O)N2CCCC(c3ccc(Cl)cc3C(F)(F)F)C2)ccn1 (centres unmarked) [Example 10, 4-({3-[4-Chloro-2-(trifluoromethyl)phenyl]piperidin-1-yl}carbonyl)-2-methylpyridine]",1170
16,"CNc1cc(C(=O)N2CCCC(c3ccc(C)cc3)C2)ccn1 (centres unmarked) [Example 11, N-Methyl-4-{[3-(4-methylphenyl)piperidin-1-yl]carbonyl}pyridin-2-amine]",290

row,Structure (SMILES),IC50 [nM]
1,"Cc1ccc(C2CCCN(C(=O)c3ccnc(C)c3)C2)cc1 (centres unmarked) [Example 12, 2-Methyl-4-{[3-(4-methylphenyl)piperidin-1-yl]carbonyl}pyridine]",2800
2,"Cc1cccc(C2CCCN(C(=O)c3ccnc(N(C)C)c3)C2)c1 (centres unmarked) [Example 13, N,N-Dimethyl-4-{[3-(3-methylphenyl)piperidin-1-yl]carbonyl}pyridin-2-amine]",1920
3,"Cc1ccccc1C1CCCN(C(=O)c2ccnc(N(C)C)c2)C1 (centres unmarked) [Example 14, N,N-Dimethyl-4-{[3-(2-methylphenyl)piperidin-1-yl]carbonyl}pyridin-2-amine]",190
4,"CN(C)c1cc(C(=O)N2CCCC(c3ccccc3)C2)ccn1 (centres unmarked) [Example 15, N,N-Dimethyl-4-[(3-phenylpiperidin-1-yl)carbonyl]pyridin-2-amine]",1140
5,"CN(C)c1cc(C(=O)N2CCCC(c3ccc(Cl)cc3)C2)ccn1 (centres unmarked) [Example 16, 4-{[3-(4-Chlorophenyl)piperidin-1-yl]carbonyl}-N,N-dimethylpyridin-2-amine]",270
6,"CN(C)c1cc(C(=O)N2CCC[C@@H](c3ccc(Cl)cc3)C2)ccn1 [Example 17, 4-{[(3S)-3-(4-Chlorophenyl)piperidin-1-yl]carbonyl}-N,N-dimethylpyridin-2-amine]",840
7,"CN(C)c1cc(C(=O)N2CCC[C@H](c3ccc(Cl)cc3)C2)ccn1 [Example 18, 4-{[(3R)-3-(4-Chlorophenyl)piperidin-1-yl]carbonyl}-N,N-dimethylpyridin-2-amine]",180
8,"CN(C)c1cc(C(=O)N2CCCC(c3ccc(F)cc3)C2)ccn1 (centres unmarked) [Example 19, 4-{[3-(4-Fluorophenyl)piperidin-1-yl]carbonyl}-N,N-dimethylpyridin-2-amine]",1220
9,"CCc1cc(C(=O)N2CCCC(c3ccc(C)cc3)C2)ccn1 (centres unmarked) [Example 20, 2-Ethyl-4-{[3-(4-methylphenyl)piperidin-1-yl]carbonyl}pyridine]",1210
10,"Cc1ccc(C2CCCN(C(=O)c3ccnc(N4CCC4)c3)C2)cc1 (centres unmarked) [Example 21, 2-(Azetidin-1-yl)-4-{[3-(4-methylphenyl)piperidin-1-yl]carbonyl}pyridine]",1200
11,"O=C(c1ccnc(N2CCC2)c1)N1CCCC(c2ccc(Cl)cc2)C1 (centres unmarked) [Example 22, 2-(Azetidin-1-yl)-4-{[3-(4-chlorophenyl)piperidin-1-yl]carbonyl}pyridine]",1040
12,"Cc1ccccc1C1CCCN(C(=O)c2ccnc(N3CCC3)c2)C1 (centres unmarked) [Example 23, 2-(Azetidin-1-yl)-4-{[3-(2-methylphenyl)piperidin-1-yl]carbonyl}pyridine]",960
13,"Cc1cc(Cl)ccc1C1CCCN(C(=O)c2ccnc(N(C)C)c2)C1 (centres unmarked) [Example 24, 4-{[3-(4-Chloro-2-methylphenyl)piperidin-1-yl]carbonyl}-N,N-dimethylpyridin-2-amine]",30
14,"CN(C)c1cc(C(=O)N2CCCC(c3ccc(Cl)cc3F)C2)ccn1 (centres unmarked) [Example 25, 4-{[3-(4-Chloro-2-fluorophenyl)piperidin-1-yl]carbonyl}-N,N-dimethylpyridin-2-amine]",530
15,"CN(C)c1cc(C(=O)N2CCCC(c3ccc(F)cc3Cl)C2)ccn1 (centres unmarked) [Example 26, 4-{[3-(2-Chloro-4-fluorophenyl)piperidin-1-yl]carbonyl}-N,N-dimethylpyridin-2-amine]",470
16,"CNc1cc(C(=O)N2CCCC(c3ccc(Cl)cc3)C2)ccn1 (centres unmarked) [Example 27, 4-{[3-(4-Chlorophenyl)piperidin-1-yl]carbonyl}-N-methylpyridin-2-amine]",130
